Like-named read-outs stand apart in the source and are kept apart here.
Experiments:
[1] = test system: recombinant NL4-3 virus (nef section replaced with Renilla luciferase gene) in MT-2 cells; assay: HIV cell culture assay (antiviral activity, luciferase readout); assay type: cell-based; conditions: Renilla, NL43, MT-2 cells infected for 4-5 days with recombinant NL4-3 Renilla luciferase virus
Summary of the method: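 MT-2 cells were infected for 4-5 days with reporter virus made by transfecting the recombinant NL4-3 proviral clone into 293T cells, in the presence of serial compound dilutions. Luciferase activity was read with a live-cell substrate. EC50 came from the exponential median effect equation, (Fa)=1/[1+(ED50/drug conc.)m].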

[2] = Compound cytotoxicity, XTT-based colorimetric assay; assay type: cell-based; conditions: human
Summary of the method: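 CC50 derived from XTT colorimetric signal measured on day 4 in MT2 cells that were not infected. All other steps followed the antiviral assay protocol.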

[3] = uninfected MT2 cells, day 4, XTT, read-out: CC50

Compound | EC50 [1] | CC50 at 4 days [2, 3] | CC50 at 4 days [2]
COCCCn1nc(NS(C)(=O)=O)c2c(Cl)ccc(-n3c([C@H](Cc4cc(F)cc(F)c4)NC(=O)Cn4nc(C(F)F)c5c4C(F)(F)[C@@H]4C[C@H]54)nc4nc(C5CCC(F)(F)CC5)cc(NCCN5CCC(C)(C)CC5)c4c3=O)c21 (atropisomer, axis not shown; (P)) [Example 523, N-[(1S)-1-[(3P)-3-[4-chloro-3-methanesulfonamido-1-(3-methoxypropyl)-1H-indazol-7-yl]-7-(4,4-difluorocyclohexyl)-5-{[2-(4,4-dimethylpiperidin-1-yl)ethyl]amino}-4-oxo-3H,4H-pyrido[2,3-d]pyrimidin-2-yl]-2-(3,5-difluorophenyl)ethyl]-2-[(2S,4R)-9-(difluoromethyl)-5,5-difluoro-7,8-diazatricyclo[4.3.0.0^2,^4]nona-1(6),8-dien-7-yl]acetamide] | 0.012 nM | > 20 nM | –
C[C@@H]1CN(Cc2cc(C3CCC(F)(F)CC3)nc3nc([C@H](Cc4cc(F)cc(F)c4)NC(=O)Cn4nc(C(F)F)c5c4C(F)(F)[C@@H]4C[C@H]54)n(-c4ccc(Cl)c5c(NS(C)(=O)=O)nn(CCN6CCC(F)(F)CC6)c45)c(=O)c23)C[C@H](C)O1 (atropisomer, axis not shown; (P)) [Example 525, N-[(1S)-1-[(3P)-3-{4-chloro-1-[2-(4,4-difluoropiperidin-1-yl)ethyl]-3-methanesulfonamido-1H-indazol-7-yl}-7-(4,4-difluorocyclohexyl)-5-{[(2R,6S)-2,6-dimethylmorpholin-4-yl]methyl}-4-oxo-3H,4H-pyrido[2,3-d]pyrimidin-2-yl]-2-(3,5-difluorophenyl)ethyl]-2-[(2S,4R)-9-(difluoromethyl)-5,5-difluoro-7,8-diazatricyclo[4.3.0.0^2,^4]nona-1(6),8-dien-7-yl]acetamide] | 0.016 nM | > 20 nM | –
C[C@@H]1CN(Cc2cc(C3CCC(F)(F)CC3)nc3nc([C@H](Cc4cc(F)cc(F)c4)NC(=O)Cn4nc(C(F)F)c5c4C(F)(F)[C@@H]4C[C@H]54)n(-c4ccc(Cl)c5c(NS(C)(=O)=O)nn(CCN6C[C@H](F)C[C@H](F)C6)c45)c(=O)c23)C[C@H](C)O1 (atropisomer, axis not shown; (P)) [Example 526, N-[(1S)-1-[(3P)-3-(4-chloro-1-{2-[(3R,5S)-3,5-difluoropiperidin-1-yl]ethyl}-3-methanesulfonamido-1H-indazol-7-yl)-7-(4,4-difluorocyclohexyl)-5-{[(2R,6S)-2,6-dimethylmorpholin-4-yl]methyl}-4-oxo-3H,4H-pyrido[2,3-d]pyrimidin-2-yl]-2-(3,5-difluorophenyl)ethyl]-2-[(2S,4R)-9-(difluoromethyl)-5,5-difluoro-7,8-diazatricyclo[4.3.0.0^2,^4]nona-1(6),8-dien-7-yl]acetamide] | 0.014 nM | > 20 nM | –
C[C@@H]1CN(Cc2cc(C3CCC(F)(F)CC3)nc3nc([C@H](Cc4cc(F)cc(F)c4)NC(=O)Cn4nc(C(F)F)c5c4C(F)(F)[C@@H]4C[C@H]54)n(-c4ccc(Cl)c5c(NS(C)(=O)=O)nn(CCN6CCC(F)CC6)c45)c(=O)c23)C[C@H](C)O1 (atropisomer, axis not shown; (P)) [Example 527, N-[(1S)-1-[(3P)-3-{4-chloro-1-[2-(4-fluoropiperidin-1-yl)ethyl]-3-methanesulfonamido-1H-indazol-7-yl}-7-(4,4-difluorocyclohexyl)-5-{[(2R,6S)-2,6-dimethylmorpholin-4-yl]methyl}-4-oxo-3H,4H-pyrido[2,3-d]pyrimidin-2-yl]-2-(3,5-difluorophenyl)ethyl]-2-[(2S,4R)-9-(difluoromethyl)-5,5-difluoro-7,8-diazatricyclo[4.3.0.0^2,^4]nona-1(6),8-dien-7-yl]acetamide] | 0.012 nM | > 20 nM | –
C[C@@H]1CN(CCn2nc(NS(C)(=O)=O)c3c(Cl)ccc(-n4c([C@H](Cc5cc(F)cc(F)c5)NC(=O)Cn5nc(C(F)F)c6c5C(F)(F)[C@@H]5C[C@H]65)nc5nc(C6CCC(F)(F)CC6)cc(CN6C[C@@H](C)O[C@@H](C)C6)c5c4=O)c32)C[C@H](C)O1 (atropisomer, axis not shown; (P)) [Example 528, N-[(1S)-1-[(3P)-3-(4-chloro-1-{2-[(2R,6S)-2,6-dimethylmorpholin-4-yl]ethyl}-3-methanesulfonamido-1H-indazol-7-yl)-7-(4,4-difluorocyclohexyl)-5-{[(2R,6S)-2,6-dimethylmorpholin-4-yl]methyl}-4-oxo-3H,4H-pyrido[2,3-d]pyrimidin-2-yl]-2-(3,5-difluorophenyl)ethyl]-2-[(2S,4R)-9-(difluoromethyl)-5,5-difluoro-7,8-diazatricyclo[4.3.0.0^2,^4]nona-1(6),8-dien-7-yl]acetamide] | 0.006 nM | > 20 nM | –
C[C@@H]1CN(Cc2cc(C3CCC(F)(F)CC3)nc3nc([C@H](Cc4cc(F)cc(F)c4)NC(=O)Cn4nc(C(F)F)c5c4C(F)(F)[C@@H]4C[C@H]54)n(-c4ccc(Cl)c5c(NS(C)(=O)=O)nn(CCN6CC(C)(C)OC(C)(C)C6)c45)c(=O)c23)C[C@H](C)O1 (atropisomer, axis not shown; (P)) [Example 529, N-[(1S)-1-[(3P)-3-{4-chloro-3-methanesulfonamido-1-[2-(2,2,6,6-tetramethylmorpholin-4-yl)ethyl]-1H-indazol-7-yl}-7-(4,4-difluorocyclohexyl)-5-{[(2R,6S)-2,6-dimethylmorpholin-4-yl]methyl}-4-oxo-3H,4H-pyrido[2,3-d]pyrimidin-2-yl]-2-(3,5-difluorophenyl)ethyl]-2-[(2S,4R)-9-(difluoromethyl)-5,5-difluoro-7,8-diazatricyclo[4.3.0.0^2,4]nona-1(6),8-dien-7-yl]acetamide] | 0.017 nM | > 1000 nM | –
COCCCn1nc(NS(C)(=O)=O)c2c(Cl)ccc(-n3c([C@H](Cc4cc(F)cc(F)c4)NC(=O)Cn4nc(C(F)F)c5c4C(F)(F)[C@@H]4C[C@H]54)nc4nc(C5CCC(F)(F)CC5)cc(CN5C[C@@H](F)[C@@H](F)C5)c4c3=O)c21 (atropisomer, axis not shown; (P)) [Example 530, N-[(1S)-1-[(3P)-3-[4-chloro-3-methanesulfonamido-1-(3-methoxypropyl)-1H-indazol-7-yl]-7-(4,4-difluorocyclohexyl)-5-{[(3R,4S)-3,4-difluoropyrrolidin-1-yl]methyl}-4-oxo-3H,4H-pyrido[2,3-d]pyrimidin-2-yl]-2-(3,5-difluorophenyl)ethyl]-2-[(2S,4R)-9-(difluoromethyl)-5,5-difluoro-7,8-diazatricyclo[4.3.0.0^2,^4]nona-1(6),8-dien-7-yl]acetamide] | 0.008 nM | > 20 nM | –
COCCCn1nc(NS(C)(=O)=O)c2c(Cl)ccc(-n3c([C@H](Cc4cc(F)cc(F)c4)NC(=O)Cn4nc(C(F)F)c5c4C(F)(F)[C@@H]4C[C@H]54)nc4nc(C5CCC(F)(F)CC5)cc(CN5C[C@H]6C[C@@H](C5)O6)c4c3=O)c21 (atropisomer, axis not shown; (P)) [Example 531, N-[(1S)-1-[(3P)-3-[4-chloro-3-methanesulfonamido-1-(3-methoxypropyl)-1H-indazol-7-yl]-7-(4,4-difluorocyclohexyl)-5-{[(1R,5S)-6-oxa-3-azabicyclo[3.1.1]heptan-3-yl]methyl}-4-oxo-3H,4H-pyrido[2,3-d]pyrimidin-2-yl]-2-(3,5-difluorophenyl)ethyl]-2-[(2S,4R)-9-(difluoromethyl)-5,5-difluoro-7,8-diazatricyclo[4.3.0.0^2,^4]nona-1(6),8-dien-7-yl]acetamide] | 0.021 nM | – | > 20 nM
COCCCn1nc(NS(C)(=O)=O)c2c(Cl)ccc(-n3c([C@H](Cc4cc(F)cc(F)c4)NC(=O)Cn4nc(C(F)F)c5c4C(F)(F)[C@@H]4C[C@H]54)nc4nc(C5CCC(F)(F)CC5)cc(NCCN5CCN(C)CC5)c4c3=O)c21 (atropisomer, axis not shown; (P)) [Example 535, N-[(1S)-1-[(3P)-3-[4-chloro-3-methanesulfonamido-1-(3-methoxypropyl)-1H-indazol-7-yl]-7-(4,4-difluorocyclohexyl)-5-{[2-(4-methylpiperazin-1-yl)ethyl]amino}-4-oxo-3H,4H-pyrido[2,3-d]pyrimidin-2-yl]-2-(3,5-difluorophenyl)ethyl]-2-[(2S,4R)-9-(difluoromethyl)-5,5-difluoro-7,8-diazatricyclo[4.3.0.0^2,^4]nona-1(6),8-dien-7-yl]acetamide] | 0.057 nM | > 20 nM | –
COCCCn1nc(NS(C)(=O)=O)c2c(Cl)ccc(-n3c([C@H](Cc4cc(F)cc(F)c4)NC(=O)Cn4nc(C(F)F)c5c4C(F)(F)[C@@H]4C[C@H]54)nc4nc(C5CCC(F)(F)CC5)cc(NCCN5CCN(C(C)=O)CC5)c4c3=O)c21 (atropisomer, axis not shown; (P)) [Example 536, N-[(1S)-1-[(3P)-5-{[2-(4-acetylpiperazin-1-yl)ethyl]amino}-3-[4-chloro-3-methanesulfonamido-1-(3-methoxypropyl)-1H-indazol-7-yl]-7-(4,4-difluorocyclohexyl)-4-oxo-3H,4H-pyrido[2,3-d]pyrimidin-2-yl]-2-(3,5-difluorophenyl)ethyl]-2-[(2S,4R)-9-(difluoromethyl)-5,5-difluoro-7,8-diazatricyclo[4.3.0.0^2,^4]nona-1(6),8-dien-7-yl]acetamide] | 0.025 nM | > 20 nM | –

— patent publication US12594276B2, “Inhibitors of human immunodeficiency virus replication” (ViiV Healthcare UK (No.5) Limited, priority 2024, dated 2026)
